ChEMBL document CHEMBL4619816, “GSK973 Is an Inhibitor of the Second Bromodomains (BD2s) of the Bromodomain and Extra-Terminal (BET) Family” (ACS Med Chem Lett, 2020)
The source made the active and inactive calls. The rule behind the calls is not given here.

Columns and labels:
[1] = Oral bioavailability in Wistar Han rat at 3 mg/kg measured up to 24 hrs by LC-MS/MS analysis; format: ADME, organism-based; conditions: in vivo
[2] = target: Protein polybromo-1 (Homo sapiens) (UniProt Q86U86); test: Inhibition of human partial length PBRM1 bromodomain 1 (S178 to E291 residues) expressed in bacterial expression system by BROMOscan assay
[3] = target: CREB-binding protein (Homo sapiens) (UniProt Q92793); test: Inhibition of human partial length CREBBP (R1081 to G1197 residues) expressed in bacterial expression system by BROMOscan assay
[4] = Chromatographic hydrophobicity index, log D of the compound in pH 7.4 ammonium acetate buffer/acetonitrile gradient by HPLC analysis; format: physicochemical
[5] = Clearance in Wistar Han rat at 1 mg/kg administered as iv infusion for 1 hr and measured up to 24 hrs by LC-MS/MS analysis; format: ADME, organism-based; conditions: in vivo
[6] = target: Histone acetyltransferase KAT2A (Homo sapiens) (UniProt Q92830); test: Inhibition of human partial length GCN5L2 (E726 to K837 residues) expressed in bacterial expression system by BROMOscan assay
[7] = target: ATPase family AAA domain-containing protein 2 (Homo sapiens) (UniProt Q6PL18); test: Inhibition of human partial length ATAD2A (Q981 to R1108 residues) expressed in bacterial expression system by BROMOscan assay
[8] = Clearance in Wistar Han rat hepatocytes assessed as per gram tissue at 0.5 uM measured up to 1 hr by LC-MS/MS analysis; format: ADME, cell-based, Hepatocyte
[9] = target: Bromodomain-containing protein 3 (Homo sapiens) (UniProt Q15059); test: Inhibition of human partial length BRD3 bromodomain 2 (G306 to P416 residues) expressed in bacterial expression system by BROMOscan assay
[10] = target: Bromodomain testis-specific protein (Homo sapiens) (UniProt Q58F21); test: Inhibition of human partial length BRDT bromodomain 1 (N21 to E137 residues) expressed in bacterial expression system by BROMOscan assay
[11] = target: Transcription initiation factor TFIID subunit 1 (Homo sapiens) (UniProt P21675); test: Inhibition of human partial length TAF1 bromodomain 2 (D1521 to D1656 residues) expressed in bacterial expression system by BROMOscan assay
[12] = target: Transcription initiation factor TFIID subunit 1-like (Homo sapiens) (UniProt Q8IZX4); test: Inhibition of human partial length TAF1L bromodomain 2 (Q1523 to D1654 residues) expressed in bacterial expression system by BROMOscan assay
[13] = Half life in Beagle dog at 1 mg/kg, iv; format: ADME, organism-based, Canis lupus familiaris; conditions: in vivo
[14] = target: Bromodomain-containing protein 8 (Homo sapiens) (UniProt Q9H0E9); test: Inhibition of BRD8 bromodomain 2 (unknown origin) by BROMOscan assay
[15] = target: E3 ubiquitin-protein ligase TRIM33 (Homo sapiens) (UniProt Q9UPN9); test: Inhibition of human partial length TRIM33 (D882 to A1087 residues) expressed in bacterial expression system by BROMOscan assay
[16] = target: SWI/SNF-related matrix-associated actin-dependent regulator of chromatin subfamily A member 2 (Homo sapiens) (UniProt P51531); test: Inhibition of human partial length SMARCA2 (S1377 to Q1486 residues) expressed in bacterial expression system by BROMOscan assay
[17] = target: Bromodomain-containing protein 1 (Homo sapiens) (UniProt O95696); test: Inhibition of human partial length BRD1 (E556 to A688 residues) expressed in bacterial expression system by BROMOscan assay
[18] = target: SWI/SNF-related matrix-associated actin-dependent regulator of chromatin subfamily A member 4 (Homo sapiens) (UniProt P51532); test: Inhibition of human partial length SMARCA4 (A1448 to S1575 residues) expressed in bacterial expression system by BROMOscan assay
[19] = Renal clearance in Beagle dog at 1 mg/kg, iv; format: ADME, organism-based, Canis lupus familiaris; conditions: in vivo
[20] = target: Bromodomain-containing protein 2 (Homo sapiens) (UniProt P25440); test: Inhibition of human partial length BRD2 bromodomain 2 isoform 1 (E348 to D455 residues) expressed in bacterial expression system by BROMOscan assay
[21] = Permeability of compound by artificial membrane assay; format: ADME; conditions: PAMPA; read-out: permeability
[22] = Volume of distribution at steady state in Beagle dog at 1 mg/kg, iv; format: ADME, organism-based, Canis lupus familiaris; conditions: in vivo, read-out: Vdss
[23] = target: Bromodomain and PHD finger-containing protein 3 (Homo sapiens) (UniProt Q9ULD4); test: Inhibition of human partial length BRPF3 (E588 to G701 residues) expressed in bacterial expression system by BROMOscan assay
[24] = target: Bromodomain-containing protein 3 (Homo sapiens) (UniProt Q15059); test: Inhibition of BRD3 bromodomain 1/2 (unknown origin) by BROMOscan assay
[25] = target: Bromodomain adjacent to zinc finger domain protein 2A (Homo sapiens) (UniProt Q9UIF9); test: Inhibition of human partial length BAZ2A (M1792 to L1905 residues) expressed in bacterial expression system by BROMOscan assay
[26] = target: Bromodomain-containing protein 3 (Homo sapiens) (UniProt Q15059); test: Inhibition of human partial length BRD3 bromodomain 1 (P24 to E144 residues) expressed in bacterial expression system by BROMOscan assay
[27] = Renal clearance in Wistar Han rat at 1 mg/kg administered as iv infusion for 1 hr and measured up to 24 hrs by LC-MS/MS analysis; format: ADME, organism-based; conditions: in vivo
Blood = test: Inhibition of LPS-induced MCP1 production in human whole blood preincubated for 30 mins followed by LPS addition measured after 24 hrs by immuno assay; format: functional, tissue-based
[28] = target: Bromodomain-containing protein 7 (Homo sapiens) (UniProt Q9NPI1); test: Inhibition of human partial length BRD7 (L125 to R254 residues) expressed in mammalian expression system by BROMOscan assay
[29] = target: Bromodomain testis-specific protein (Homo sapiens) (UniProt Q58F21); test: Inhibition of human partial length BRDT bromodomain 2 (K250 to E382 residues) expressed in bacterial expression system by BROMOscan assay
[30] = target: Nucleosome-remodeling factor subunit BPTF (Homo sapiens) (UniProt Q12830); test: Inhibition of human partial length FALZ (S2791 to H2911 residues) expressed in bacterial expression system by BROMOscan assay
[31] = target: Bromodomain-containing protein 2 (Homo sapiens) (UniProt P25440); test: Inhibition of human partial length BRD2 bromodomain 1/2 isoform 1 (K71 to D455 residues) by BROMOscan assay
[32] = target: Transcription intermediary factor 1-alpha (Homo sapiens) (UniProt O15164); test: Inhibition of human partial length TRIM24 (P790 to P977 residues) expressed in bacterial expression system by BROMOscan assay
[33] = Volume of distribution at steady state in Wistar Han rat at 1 mg/kg administered as iv infusion for 1 hr and measured up to 24 hrs by LC-MS/MS analysis; format: ADME, organism-based; conditions: in vivo, read-out: Vdss
[34] = target: Bromodomain-containing protein 2 (Homo sapiens) (UniProt P25440); test: Inhibition of human partial length BRD2 bromodomain 1 long isoform (K71 to N194 residues) expressed in bacterial expression system by BROMOscan assay
[35] = Oral bioavailability in Beagle dog at 1 mg/kg, […]; format: ADME, organism-based, Canis lupus familiaris; conditions: in vivo

Bromodomain-containing protein 3 (Homo sapiens), sequence (Q15059 2-726 limits assumed): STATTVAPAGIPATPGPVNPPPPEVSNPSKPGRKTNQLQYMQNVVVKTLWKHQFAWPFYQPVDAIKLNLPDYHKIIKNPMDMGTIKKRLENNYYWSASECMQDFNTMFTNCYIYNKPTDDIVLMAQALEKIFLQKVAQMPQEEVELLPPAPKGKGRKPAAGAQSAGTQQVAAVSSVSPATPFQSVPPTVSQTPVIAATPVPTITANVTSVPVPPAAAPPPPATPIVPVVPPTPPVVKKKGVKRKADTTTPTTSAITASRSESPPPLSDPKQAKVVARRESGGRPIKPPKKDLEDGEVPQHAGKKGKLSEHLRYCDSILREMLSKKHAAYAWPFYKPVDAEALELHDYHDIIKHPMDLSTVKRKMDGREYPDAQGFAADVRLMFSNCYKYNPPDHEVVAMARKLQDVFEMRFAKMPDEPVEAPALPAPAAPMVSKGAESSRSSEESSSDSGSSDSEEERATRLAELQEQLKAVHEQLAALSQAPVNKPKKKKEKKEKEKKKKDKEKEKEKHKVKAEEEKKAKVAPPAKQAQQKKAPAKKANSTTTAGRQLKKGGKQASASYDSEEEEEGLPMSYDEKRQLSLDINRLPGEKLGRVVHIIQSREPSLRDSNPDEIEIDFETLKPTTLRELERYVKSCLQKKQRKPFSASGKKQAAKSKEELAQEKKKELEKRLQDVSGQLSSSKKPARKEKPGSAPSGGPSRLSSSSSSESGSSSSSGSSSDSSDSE
Bromodomain-containing protein 2 (Homo sapiens), sequence (P25440 whole entry, looked up, the tested form may be a part, canonical isoform): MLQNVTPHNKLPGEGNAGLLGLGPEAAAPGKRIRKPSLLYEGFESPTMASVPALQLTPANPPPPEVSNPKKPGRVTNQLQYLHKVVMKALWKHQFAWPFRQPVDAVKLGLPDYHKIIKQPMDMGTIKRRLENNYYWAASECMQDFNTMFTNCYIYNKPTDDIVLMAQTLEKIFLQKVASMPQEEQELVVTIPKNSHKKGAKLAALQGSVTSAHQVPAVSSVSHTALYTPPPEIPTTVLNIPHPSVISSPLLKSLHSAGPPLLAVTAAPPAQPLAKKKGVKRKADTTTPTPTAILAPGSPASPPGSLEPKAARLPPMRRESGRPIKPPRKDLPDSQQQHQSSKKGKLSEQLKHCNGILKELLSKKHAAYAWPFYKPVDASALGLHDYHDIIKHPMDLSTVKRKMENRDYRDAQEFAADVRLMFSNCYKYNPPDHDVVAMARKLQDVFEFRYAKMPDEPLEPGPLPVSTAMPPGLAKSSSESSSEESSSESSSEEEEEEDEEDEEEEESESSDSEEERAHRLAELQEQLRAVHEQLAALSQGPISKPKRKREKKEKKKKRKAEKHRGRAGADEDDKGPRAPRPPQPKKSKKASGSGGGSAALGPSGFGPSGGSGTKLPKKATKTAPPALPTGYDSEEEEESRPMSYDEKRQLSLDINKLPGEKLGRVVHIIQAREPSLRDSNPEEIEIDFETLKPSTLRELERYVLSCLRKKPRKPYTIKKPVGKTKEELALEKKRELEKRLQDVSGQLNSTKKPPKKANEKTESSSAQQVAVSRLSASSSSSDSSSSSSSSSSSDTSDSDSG
Transcription initiation factor TFIID subunit 1-like (Homo sapiens), sequence (Q8IZX4 whole entry, the tested form may be a part): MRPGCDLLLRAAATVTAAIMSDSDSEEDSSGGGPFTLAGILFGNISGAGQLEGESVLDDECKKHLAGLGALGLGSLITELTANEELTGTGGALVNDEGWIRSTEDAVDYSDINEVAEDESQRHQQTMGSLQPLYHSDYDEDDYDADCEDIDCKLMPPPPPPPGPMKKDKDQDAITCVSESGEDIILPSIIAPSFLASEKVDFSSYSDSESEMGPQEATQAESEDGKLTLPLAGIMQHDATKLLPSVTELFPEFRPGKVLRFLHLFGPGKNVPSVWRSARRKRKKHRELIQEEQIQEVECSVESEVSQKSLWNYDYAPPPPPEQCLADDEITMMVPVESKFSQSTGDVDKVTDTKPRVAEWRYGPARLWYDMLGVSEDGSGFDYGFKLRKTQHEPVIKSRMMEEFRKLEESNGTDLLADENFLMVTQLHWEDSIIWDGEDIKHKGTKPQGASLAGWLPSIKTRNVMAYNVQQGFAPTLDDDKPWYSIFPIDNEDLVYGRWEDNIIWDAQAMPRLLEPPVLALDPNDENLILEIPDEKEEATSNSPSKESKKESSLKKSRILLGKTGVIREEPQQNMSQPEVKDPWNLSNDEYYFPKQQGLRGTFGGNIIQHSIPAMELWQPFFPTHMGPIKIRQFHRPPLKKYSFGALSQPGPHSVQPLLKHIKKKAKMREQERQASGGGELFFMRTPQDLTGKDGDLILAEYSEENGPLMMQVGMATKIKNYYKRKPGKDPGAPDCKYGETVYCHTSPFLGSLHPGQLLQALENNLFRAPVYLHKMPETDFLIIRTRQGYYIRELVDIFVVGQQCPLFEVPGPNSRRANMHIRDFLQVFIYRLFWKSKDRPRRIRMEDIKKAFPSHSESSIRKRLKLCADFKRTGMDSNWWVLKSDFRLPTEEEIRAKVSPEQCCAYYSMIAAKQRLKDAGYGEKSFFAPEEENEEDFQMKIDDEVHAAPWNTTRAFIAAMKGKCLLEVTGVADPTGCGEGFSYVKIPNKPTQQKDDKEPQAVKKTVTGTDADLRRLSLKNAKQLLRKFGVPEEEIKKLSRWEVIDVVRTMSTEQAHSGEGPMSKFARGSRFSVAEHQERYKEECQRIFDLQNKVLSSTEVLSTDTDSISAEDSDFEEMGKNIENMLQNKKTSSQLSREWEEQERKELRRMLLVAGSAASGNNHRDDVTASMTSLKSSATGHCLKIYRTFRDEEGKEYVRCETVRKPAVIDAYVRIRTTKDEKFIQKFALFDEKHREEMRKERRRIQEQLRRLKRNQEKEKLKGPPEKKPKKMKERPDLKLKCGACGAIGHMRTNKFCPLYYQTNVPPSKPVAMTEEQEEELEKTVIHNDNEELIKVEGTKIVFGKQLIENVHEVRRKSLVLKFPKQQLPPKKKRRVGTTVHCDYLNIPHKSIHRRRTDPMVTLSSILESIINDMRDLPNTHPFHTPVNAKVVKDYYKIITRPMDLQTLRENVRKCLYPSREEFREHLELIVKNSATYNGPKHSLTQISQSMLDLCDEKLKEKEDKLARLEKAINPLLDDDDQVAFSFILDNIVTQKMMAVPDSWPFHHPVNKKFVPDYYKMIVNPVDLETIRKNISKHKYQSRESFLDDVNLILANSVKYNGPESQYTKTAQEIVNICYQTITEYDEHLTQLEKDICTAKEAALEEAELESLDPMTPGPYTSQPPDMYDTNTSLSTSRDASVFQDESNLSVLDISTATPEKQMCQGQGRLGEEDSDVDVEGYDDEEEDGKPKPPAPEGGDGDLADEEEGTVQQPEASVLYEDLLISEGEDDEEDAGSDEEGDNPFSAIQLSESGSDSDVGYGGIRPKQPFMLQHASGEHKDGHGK
SWI/SNF-related matrix-associated actin-dependent regulator of chromatin subfamily A member 4 (Homo sapiens), sequence (P51532 whole entry, the tested form may be a part): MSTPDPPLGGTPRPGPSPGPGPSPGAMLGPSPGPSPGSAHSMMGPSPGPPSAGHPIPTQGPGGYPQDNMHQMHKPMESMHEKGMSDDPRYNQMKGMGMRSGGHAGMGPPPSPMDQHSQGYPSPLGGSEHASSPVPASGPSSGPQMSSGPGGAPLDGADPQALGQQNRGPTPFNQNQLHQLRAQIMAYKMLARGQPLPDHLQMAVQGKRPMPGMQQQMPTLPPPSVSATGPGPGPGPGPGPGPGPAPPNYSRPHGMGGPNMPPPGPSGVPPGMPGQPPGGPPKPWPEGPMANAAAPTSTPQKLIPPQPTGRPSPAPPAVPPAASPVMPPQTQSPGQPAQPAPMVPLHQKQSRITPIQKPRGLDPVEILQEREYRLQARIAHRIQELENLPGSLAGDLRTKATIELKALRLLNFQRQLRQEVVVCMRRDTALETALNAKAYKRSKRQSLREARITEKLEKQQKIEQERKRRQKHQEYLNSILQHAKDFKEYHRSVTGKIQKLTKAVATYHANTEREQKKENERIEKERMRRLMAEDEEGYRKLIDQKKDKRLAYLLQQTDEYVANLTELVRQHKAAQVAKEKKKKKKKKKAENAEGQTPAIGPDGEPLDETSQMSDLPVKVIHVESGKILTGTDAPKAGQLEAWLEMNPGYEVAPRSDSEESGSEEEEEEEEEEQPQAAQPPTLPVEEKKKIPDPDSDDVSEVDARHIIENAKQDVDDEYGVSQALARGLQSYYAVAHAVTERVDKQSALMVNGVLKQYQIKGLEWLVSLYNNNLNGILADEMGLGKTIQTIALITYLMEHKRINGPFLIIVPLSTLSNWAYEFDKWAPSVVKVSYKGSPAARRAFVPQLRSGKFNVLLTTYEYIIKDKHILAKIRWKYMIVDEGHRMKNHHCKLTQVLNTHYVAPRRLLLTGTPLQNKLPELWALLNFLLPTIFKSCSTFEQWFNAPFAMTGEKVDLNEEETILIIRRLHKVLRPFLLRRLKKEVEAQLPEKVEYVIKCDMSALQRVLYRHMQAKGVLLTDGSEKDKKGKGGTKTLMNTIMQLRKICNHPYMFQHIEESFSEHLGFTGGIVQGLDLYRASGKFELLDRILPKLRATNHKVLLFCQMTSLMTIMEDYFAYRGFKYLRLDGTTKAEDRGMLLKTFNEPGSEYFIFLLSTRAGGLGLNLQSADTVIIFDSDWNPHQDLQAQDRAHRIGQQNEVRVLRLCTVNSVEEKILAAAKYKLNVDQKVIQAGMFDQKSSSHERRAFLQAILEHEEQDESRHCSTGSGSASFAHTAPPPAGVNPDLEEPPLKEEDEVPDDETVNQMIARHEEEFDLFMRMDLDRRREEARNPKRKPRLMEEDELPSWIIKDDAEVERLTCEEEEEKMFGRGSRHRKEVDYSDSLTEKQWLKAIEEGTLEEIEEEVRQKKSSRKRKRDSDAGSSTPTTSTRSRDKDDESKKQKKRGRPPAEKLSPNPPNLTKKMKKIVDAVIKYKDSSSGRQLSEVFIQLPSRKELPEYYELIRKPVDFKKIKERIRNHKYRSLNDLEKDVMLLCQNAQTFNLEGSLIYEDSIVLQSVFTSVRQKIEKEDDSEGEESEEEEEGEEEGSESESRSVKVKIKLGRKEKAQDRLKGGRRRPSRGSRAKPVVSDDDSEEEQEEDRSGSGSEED

bioavailability [1]: 48%
inhibition [2]: inactive
inhibition [3]: inactive
CHI [4]: 3.56
clearance [5]: 73 mL/min/kg
inhibition [6]: inactive
inhibition [7]: inactive
CLH [8]: 1.76 mL/min/g
inhibition [9]: inactive
inhibition [10]: inactive
inhibition [11]: inactive
inhibition [12]: inactive
half-life [13]: 4.8 h
inhibition [14]: inactive
inhibition [15]: inactive
inhibition [16]: inactive
inhibition [17]: inactive
inhibition [18]: inactive
CL renal [19]: 0.3 mL/min/kg
inhibition [20]: inactive
Papp [21]: 16.5 ×10⁻⁶ cm/s
Vd [22]: 1.3 L/kg
inhibition [23]: inactive
inhibition [24]: inactive
inhibition [25]: inactive
inhibition [26]: inactive
CL renal [27]: 4 mL/min/kg
IC50 (Blood): 50.1 nM
inhibition [28]: inactive
inhibition [29]: inactive
inhibition [30]: inactive
inhibition [31]: inactive
inhibition [32]: inactive
Vd [33]: 2.1 L/kg
inhibition [34]: inactive
bioavailability [35]: 87%
Compound: CNC(=O)c1cc(C(=O)N[C@@H]2[C@@H]3COC[C@@H]32)cc2c1O[C@H](CF)[C@H]2c1ccccc1
